According to patent US10144715B2, “Piperazine derivatives as liver X receptor modulators” (priority 2014, dated 2018):
Like-named read-outs stand apart in the source and are kept apart here.

Legend:
[1] = target: Gal4 DNA binding domain fused to the LBD of LXRα in HEK293 cells (Homo sapiens (Human), UniProt Q13133); assay: LXR luciferase transcriptional reporter gene assay, agonist mode, LXRα; format: cell-based; settings: for EC50: read-out: Cell LXRα EC50
[2] = target: LXR β LBD protein (Homo sapiens (Human), UniProt P55055); assay: biochemical; format: binding
[3] = target: Gal4 DNA binding domain fused to the LBD of LXRβ in HEK293 cells (Homo sapiens (Human), UniProt P55055); assay: cell-based
[4] = target: LXR α LBD protein (Homo sapiens (Human), UniProt Q13133); assay: LXR α radioligand binding assay (SPA, competition with [3H]TO901317); settings: read-out: LXRα Binding Ki
Sequence of LXR α LBD protein (Q13133 209-447): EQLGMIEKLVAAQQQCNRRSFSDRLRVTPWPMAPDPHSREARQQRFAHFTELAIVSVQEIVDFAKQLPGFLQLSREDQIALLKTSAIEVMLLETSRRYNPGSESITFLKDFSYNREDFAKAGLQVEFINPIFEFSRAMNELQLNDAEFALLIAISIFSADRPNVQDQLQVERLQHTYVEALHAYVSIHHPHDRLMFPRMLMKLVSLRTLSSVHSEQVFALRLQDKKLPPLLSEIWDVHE

Sequence of LXR β LBD protein (P55055 222-460 limits assumed): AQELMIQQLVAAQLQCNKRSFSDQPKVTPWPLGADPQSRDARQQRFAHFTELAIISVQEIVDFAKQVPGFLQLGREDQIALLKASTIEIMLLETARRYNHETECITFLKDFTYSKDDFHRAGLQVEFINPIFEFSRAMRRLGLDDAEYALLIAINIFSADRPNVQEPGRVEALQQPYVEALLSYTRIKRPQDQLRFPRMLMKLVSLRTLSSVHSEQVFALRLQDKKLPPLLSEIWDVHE
Sequence of Gal4 DNA binding domain fused to the LBD of LXRβ in HEK293 cells (P55055 222-460 limits assumed): as above
Sequence of Gal4 DNA binding domain fused to the LBD of LXRα in HEK293 cells (Q13133 209-447): as the sequence (Q13133 209-447) above

`CC(C)[C@@H]1CN(c2ccc(CO)c(S(C)(=O)=O)c2)CCN1c1nc(C(F)(F)F)c(C(C)(C)O)o1` [26-2, (R)-2-(2-(4-(4-(hydroxymethyl)-3-(methylsulfonyl)phenyl)-2-isopropylpiperazin-1-yl)-4-(trifluoromethyl)oxazol-5-yl)propan-2-ol] was tested, and the “Cell LXRα efficacy” value [1] was 2233 (99) %, the EC50 [1] was 2230 nM and the Ki ([2]; read-out: LXRβ Binding Ki) was 72 nM. The EC50 [3] was 329 nM, the “Cell LXRβ efficacy” value ([3]; agonist mode) was 329 (74) % and the Ki [4] was 1180 nM.

In the case of `CC(C)[C@@H]1CN(c2ccc(F)c(S(C)(=O)=O)c2)CCN1c1ncc(O)c(C(F)(F)F)n1` [Cpd No 30-1, (R)-2-(4-(4-fluoro-3-(methylsulfonyl)phenyl)-2-isopropylpiperazin-1-yl)-4-(trifluoromethyl)pyrimidin-5-ol], the “Cell LXRα efficacy” value [1] is reported as 3121 (100) %, the EC50 [1] is reported as 3120 nM and the Ki ([2]; read-out: LXRβ Binding Ki) is reported as 24 nM. The “Cell LXRβ efficacy” value [3] was 729 (98) %, the EC50 [3] was 729 nM and the Ki [4] was 169 nM.

`Cc1csc(-c2ccc(N3CCN(c4ncc(CO)c(C(F)(F)F)n4)[C@H](C(C)C)C3)cc2S(C)(=O)=O)n1` [Cpd No 28-1, (R)-(2-(2-isopropyl-4-(3-(methylsulfonyl)-4-(4-methylthiazol-2-yl)phenyl)piperazin-1-yl)-4-(trifluoromethyl)pyrimidin-5-yl)methanol] was tested, and the “Cell LXRα efficacy” value [1] was 66 (80) %, the EC50 ([1]; agonist mode) was 66 nM and the Ki ([2]; read-out: LXRβ Binding Ki) was 3 nM. For the same molecule, the EC50 [3] was 11 nM, the “Cell LXRβ efficacy” value ([3]; agonist mode) was 11 (79) % and the Ki [4] was 29 nM.

In the case of `CO[C@H](C)[C@@H]1CN(c2ccc(CO)c(S(C)(=O)=O)c2)CCN1c1ncc(CO)c(C(F)(F)F)n1` (single isomer, unassigned) [11-5], the “Cell LXRα efficacy” value [1] is reported as 4667 (21) %, the EC50 ([1]; agonist mode) is reported as 4670 nM and the Ki [2] is reported as 414 nM. For the same molecule, the EC50 [3] was 363 nM, the “Cell LXRβ efficacy” value ([3]; agonist mode) was 363 (16) % and the Ki [4] was > 3330 nM.

`COC1CN(C(=O)c2cnc(N3CCN(c4ccc(F)c(S(C)(=O)=O)c4)C[C@H]3C(C)C)nc2C(F)(F)F)C1` [17-9, (R)-(2-(4-(4-fluoro-3-(methylsulfonyl)phenyl)-2-isopropylpiperazin-1-yl)-4-(trifluoromethyl)pyrimidin-5-yl)(3-methoxyazetidin-1-yl)methanone] was tested, and the EC50 [1] was > 20000 nM, the Ki ([2]; read-out: LXRβ Binding Ki) was 410 nM and the EC50 [3] was > 20000 nM. The Ki [4] was > 3330 nM.

For `CC(C)[C@@H]1CN(c2ccc(CO)c(S(C)(=O)=O)c2)CCN1c1nc(C(F)(F)F)c(C(=O)N(C)C)s1` [17-34, (R)-2-(4-(4-(hydroxymethyl)-3-(methylsulfonyl)phenyl)-2-isopropylpiperazin-1-yl)-N,N-dimethyl-4-(trifluoromethyl)thiazole-5-carboxamide], the “Cell LXRα efficacy” value [1] was 465 (98) %, the EC50 ([1]; agonist mode) was 465 nM and the Ki ([2]; read-out: LXRβ Binding Ki) was 23 nM. The EC50 [3] was 105 nM, the “Cell LXRβ efficacy” value ([3]; agonist mode) was 105 (94) % and the Ki [4] was 152 nM.

In the case of `Cc1nc(N2CCN(c3ccc(F)c(S(C)(=O)=O)c3)C[C@H]2C(C)C)ncc1Br` [7-20, (R)-5-bromo-2-(4-(4-fluoro-3-(methylsulfonyl)phenyl)-2-isopropylpiperazin-1-yl)-4-methylpyrimidine], the “Cell LXRα efficacy” value [1] is reported as 787 (80) %, the EC50 ([1]; agonist mode) is reported as 787 nM and the Ki ([2]; read-out: LXRβ Binding Ki) is reported as 8 nM. For the same molecule, the “Cell LXRβ efficacy” value [3] was 142 (57) %, the EC50 [3] was 142 nM and the Ki [4] was 101 nM.

With `C[C@@H](c1ccc(C(F)(F)F)cc1)N1CCN(c2cccc(S(C)(=O)=O)c2)C[C@H]1c1ccccc1` [46-17, (R)-4-(3-(methylsulfonyl)phenyl)-2-phenyl-1-((S)-1-(4-(trifluoromethyl)phenyl)ethyl)piperazine] the EC50 [1] was > 20000 nM, the Ki [2] was > 2500 nM and the EC50 [3] was > 20000 nM. The Ki [4] was > 3330 nM.

With `CC(C)[C@@H]1CN(c2ccc(CO)c(S(C)(=O)=O)c2)CCN1c1nc(C(F)(F)F)c(C(N)=O)s1` [17-35, (R)-2-(4-(4-(hydroxymethyl)-3-(methylsulfonyl)phenyl)-2-isopropylpiperazin-1-yl)-4-(trifluoromethyl)thiazole-5-carboxamide] the “Cell LXRα efficacy” value [1] was 1738 (19) %, the EC50 [1] was 1740 nM and the Ki ([2]; read-out: LXRβ Binding Ki) was 111 nM. For the same molecule, the EC50 [3] was 161 nM, the “Cell LXRβ efficacy” value ([3]; agonist mode) was 161 (23) % and the Ki [4] was 1660 nM.

For `COC(=O)NCCCN(C)C(=O)c1cnc(N2CCN(c3ccc(F)c(S(C)(=O)=O)c3)C[C@H]2C(C)C)nc1C(F)(F)F` [17-19, methyl (R)-(3-(2-(4-(4-fluoro-3-(methylsulfonyl)phenyl)-2-isopropylpiperazin-1-yl)-N-methyl-4-(trifluoromethyl)pyrimidine-5-carboxamido)propyl)carbamate], the EC50 ([1]; agonist mode) was > 20000 nM, the Ki ([2]; read-out: LXRβ Binding Ki) was 584 nM and the EC50 [3] was > 20000 nM. For the same molecule, the Ki [4] was > 3330 nM.

In the case of `CC(C)(O)CC1CN(c2ccc(F)c(S(C)(=O)=O)c2)CCN1c1ccc(C(F)(F)F)cn1` (stereo not shown) [34-1, 1-(4-(4-fluoro-3-(methylsulfonyl)phenyl)-1-(5-(trifluoromethyl)pyridin-2-yl)piperazin-2-yl)-2-methylpropan-2-ol], the “Cell LXRα efficacy” value [1] is reported as 2456 (78) %, the EC50 [1] is reported as 2460 nM and the Ki ([2]; read-out: LXRβ Binding Ki) is reported as 151 nM. For the same molecule, the EC50 [3] was 670 nM, the “Cell LXRβ efficacy” value ([3]; agonist mode) was 670 (83) % and the Ki [4] was 1240 nM.

In the case of `CS(=O)(=O)c1cccc(N2CCN(C[C@H]3CCC(C(F)(F)F)OC3)[C@@H](c3ccc(F)cc3)C2)c1` (single isomer, unassigned) [49-10], the “Cell LXRα efficacy” value [1] is reported as 1575 (67) %, the EC50 [1] is reported as 1570 nM and the Ki [2] is reported as 53 nM. The EC50 [3] was 376 nM, the “Cell LXRβ efficacy” value ([3]; Biological Test Example 2, agonist mode) was 376 (37) % and the Ki [4] was 438 nM.

With `Cc1nc(N2CCN(c3ccc(F)c(S(C)(=O)=O)c3)C[C@H]2C(C)C)ncc1CO` [11-14, (R)-(2-(4-(4-fluoro-3-(methylsulfonyl)phenyl)-2-isopropylpiperazin-1-yl)-4-methylpyrimidin-5-yl)methanol] the EC50 [1] was > 20000 nM, the Ki [2] was 515 nM and the EC50 [3] was > 20000 nM. The Ki [4] was > 3330 nM.

For `CC(C)[C@@H]1CN(c2ccc(F)c(S(C)(=O)=O)c2)CCN1c1nc2ccccc2s1` [7-56, (R)-2-(4-(4-fluoro-3-(methylsulfonyl)phenyl)-2-isopropylpiperazin-1-yl)benzo[d]thiazole], the “Cell LXRα efficacy” value [1] was 770 (70) %, the EC50 [1] was 770 nM and the Ki ([2]; read-out: LXRβ Binding Ki) was 15 nM. The “Cell LXRβ efficacy” value [3] was 99 (51) %, the EC50 [3] was 99 nM and the Ki [4] was 146 nM.

In the case of `CS(=O)(=O)c1cccc(N2CCN(C[C@H]3CC[C@](C)(O)CC3)[C@H](c3ccccc3)C2)c1` (single isomer, unassigned) [Cpd No 48-8], the EC50 [1] is reported as > 20000 nM, the Ki ([2]; read-out: LXRβ Binding Ki) is reported as > 2500 nM and the EC50 ([3]; agonist mode, read-out: Cell LXRβ EC50) is reported as > 20000 nM. For the same molecule, the Ki [4] was > 3330 nM.

`CC(C)[C@@H]1CN(c2cccc(S(C)(=O)=O)c2)CCN1c1ccc(C(F)(F)F)c(C2CC2)n1` [40-4, (R)-1-(6-cyclopropyl-5-(trifluoromethyl)pyridin-2-yl)-2-isopropyl-4-(3-(methylsulfonyl)phenyl)piperazine] was tested, and the “Cell LXRα efficacy” value [1] was 1057 (80) %, the EC50 [1] was 1060 nM and the Ki ([2]; read-out: LXRβ Binding Ki) was 7 nM. The EC50 [3] was 214 nM and the Ki [4] was 14 nM.

For `CC(C)[C@@H]1CN(c2cccc(S(C)(=O)=O)c2)CCN1c1ncc(OC(F)F)cn1` [7-11, (R)-5-(difluoromethoxy)-2-(2-isopropyl-4-(3-(methylsulfonyl)phenyl)piperazin-1-yl)pyrimidine], the “Cell LXRα efficacy” value [1] was 3658 (71) %, the EC50 [1] was 3660 nM and the Ki ([2]; read-out: LXRβ Binding Ki) was 78 nM. The EC50 [3] was 1200 nM, the “Cell LXRβ efficacy” value ([3]; agonist mode) was 1198 (48) % and the Ki [4] was 898 nM.
